# Measured values from article PMC12040169 (PLOS Biology, 2025).
# Experiment: in vitro
# Conditions: human, hela cells
row,Compound,"viability at 28.5 h, 10 µM [%]"
1,COCCn1cc(C(=O)N2CCCC(CN(C)C)C2)c2ccccc21 (stereo not shown) [CBK281431],91.5

# Same assay, conditions: human, hela cells, % viability
row,Compound,"viability at 28.5 h, 10 µM [%]"
1,COC(=O)c1c(NC(=S)Nc2cnccn2)sc2c1CCC(C)C2 (stereo not shown) [CBK266893],94.2
2,Cc1ccc(S(=O)(=O)N/N=C(/c2ccccc2)c2ccc(OCC(C)C)cc2)cc1 [CBK261056],87.8
3,Cc1cc(CNS(=O)(=O)c2sc3ccc(C(C)C)cc3c2C)no1 [CBK170353],109
4,N#Cc1ccc(CN2CCC(NC3CCCn4nccc43)C2=O)cc1 (stereo not shown) [CBK304770],97.8
5,CCC(CO)Nc1cncc(-c2cc(OC)c(OC)c(OC)c2)n1 (stereo not shown) [CBK037882],98.9
6,O=C(CCC1CCCC1)n1ccn(-c2ccc3c(c2)OCO3)c1=O [CBK106631],101
7,O=C(O)c1cccc(-c2cncc(NCc3ccncc3)n2)c1 [CBK037915],106
8,O=C(c1ccc(S(=O)(=O)N2CCCC2)cc1)N1CCN(C/C=C/c2ccccc2)CC1 [CBK263587],103
9,CCCC/C=C/c1ccc(Nc2ccc3c(c2)OCCO3)nc1 [CBK037774],93.3
10,CC(=O)Nc1nnc(SCCc2ccccc2)[nH]1 [CBK262514],95.6
11,CN(Cc1cccc(C(F)(F)F)c1)C(=O)c1cn(CC2CCCO2)nn1 (stereo not shown) [CBK304360],99.8
12,Cn1c(=O)n(C)c2cc(NC(=O)CN(c3ccccc3)S(C)(=O)=O)ccc21 [CBK270094],103
13,COc1cc(CNCc2ccccn2)ccc1OCc1cccc(Cl)c1 [CBK269877C],94.7
14,COC(=O)c1sccc1NC(=O)Cc1ccccc1[N+](=O)[O-] [CBK268146],98.7
15,Cc1cc2ccccc2n2c(=O)n(CCNC(=O)C(C)C)nc12 [CBK282876],84.2
16,O=C(O)CSc1c(NC(=O)c2ccccc2)sc2c1CCCC2 [CBK261062],97.5
17,CCOc1cc(-c2cc(C(=O)O)c3ccccc3n2)ccc1O [CBK266848],103
18,CCC1CCCCN1C(=O)c1cc2cc(Cl)ccc2[nH]1 (stereo not shown) [CBK074329],102
19,CCN1CCN(Cc2c(C(C)C)[nH]c3ncccc23)CC1 [CBK285343],83.6
20,CS(=O)(=O)N[C@H]1C[C@H]2C(=O)Nc3ccc(-c4ccc(F)cc4F)cc3C(=O)N2C1 [CBK289368],85.3
21,CCc1cccc2c(/C=C3/SC(=S)N(CC(=O)O)C3=O)c[nH]c12 [CBK264937],94

row,Compound,"viability at 28.5 h, 10 µM [%]"
1,CCCc1ccc(S(=O)(=O)Nc2cccc(C(=O)Nc3ccc(F)cc3)c2)cc1 [CBK038978],97.4
2,CC1CN(C2(n3nnc4ccccc43)CCC(C(C)(C)C)CC2)CC(C)O1 (stereo not shown) [CBK019373],98.5
3,O=C(NCCO)C1(Cc2ccc(-c3ccccc3)cc2)CCNC1 (stereo not shown) [CBK283043],83.9
4,CSc1ccc(-n2ncc(-c3ccc(Cl)cc3)n2)cc1 [CBK112782],84
5,Cc1ncccc1-c1cc2cccnc2n1CCCNC(=O)C1CC1 [CBK282687],81.5
6,COc1cc(-c2ccc3ccc(=O)[nH]c3n2)cc(OC)c1OC [CBK073721],98.8
7,O=C(CSc1nnc(CCc2ccccc2)n1-c1ccc(Cl)cc1)c1ccccc1 [CBK266277],88.9
8,Cc1ccccc1Nc1nnc(-c2ccc(C(=O)NCCO)cc2)c2ccccc12 [CBK263743],86.4
9,Cc1cnn(C2CCCN(C(=O)CC3OCCc4sccc43)C2)c1 (stereo not shown) [CBK305329],84.6
10,CN(C)c1cccc(-c2cncc(NCCCN3CCOCC3)n2)c1 [CBK065635],94.8
11,Cc1ccc(CC(=O)N2CCC(Cc3ccc(-c4cccc(C)c4)cc3)(C(N)=O)CC2)cc1 [CBK285906],89
12,Cc1nnc(SCC(=O)Nn2c(-c3ccccc3)nc3ccccc3c2=O)[nH]1 [CBK268841],86.8
13,O=C(c1cc[nH]c1)N1CCC2(CCN(Cc3ccccc3)CC2)C1 [CBK136756],86.9
14,Cc1cc(C)nc(N2CCC(C(=O)NCc3ccc(Cl)cc3)CC2)n1 [CBK136319],94.8
15,O=C(O)CCSc1nc2ccccc2nc1C(F)(F)F [CBK107866],93.7
16,O=C(O)c1cccc(NC(=O)c2ccc3c(c2)C(=O)N(Cc2cccnc2)C3=O)c1 [CBK265523],88.5
17,O=C(OCc1ccccc1)N1CCC(C2OCc3cc(-c4ccc(C(=O)N5CCCC5)cc4)ccc3O2)CC1 (stereo not shown) [CBK153260],108
18,O=C(Nc1ccc(S(=O)(=O)NCc2ccncc2)cc1)c1ccccc1Cl [CBK269664],91.5
19,COc1ccc([C@@]23CC[C@@H](NC(=O)Nc4ccc(OC(F)(F)F)cc4)C[C@@H]2N(C)CC3)cc1OC [CBK036455T],82.2
20,Cc1[nH]c(=O)[nH]c(=O)c1C(=O)Nc1ccccc1 [CBK116181],96.4
21,CS(=O)(=O)NC1CCCN(Cc2nc(N)c3ccccc3n2)C1 (stereo not shown) [CBK304889],93.8

row,Compound,"viability at 28.5 h, 10 µM [%]"
1,O=C(CSc1ccc(Cl)cc1)NNC(=O)c1cccc([N+](=O)[O-])c1 [CBK268384],93.5
2,NS(=O)(=O)c1ccc(NS(=O)(=O)c2ccc(NC(=O)C3CC3)cc2)cc1 [CBK264958],103
3,Fc1cnc(N2CCCC3(CCOC3)C2)nc1N1CCOCC1 (stereo not shown) [CBK307131],84.5
4,COc1ccccc1NS(=O)(=O)c1ccc(N2C[C@@H](C)N[C@@H](C)C2)c2ccccc12 [CBK200012C],85.3
5,O=C(NCC1CCCO1)[C@H]1CCCC[C@H]1C(=O)O (stereo partly shown) [CBK287104],88.7
6,CCOC(=O)C(NC(=O)c1cc[nH]c(=O)c1)c1cccc(C)c1C (stereo not shown) [CBK304174],97.1
7,c1cnc(NCc2cc3n(n2)CCN(CC2CCCC2)C3)nc1 [CBK307007],87.9
8,CN1CCN(CC(=O)N/N=C/C2CC=CCC2)CC1 (stereo not shown) [CBK019340],89.6
9,CSCCCNC(=O)c1ccc(-c2ccoc2)nc1 [CBK156262],99
10,COc1ccc(-c2csc(N3CCN(C)CC3)n2)cc1F [CBK305910],88.7
11,O=C1NC2(CCSCC2)Oc2ccccc21 [CBK007488],79.3
12,c1ccc(Nc2cncc(N3CCNCC3)n2)cc1 [CBK013389],100
13,O=C(O)c1ccc(NS(=O)(=O)c2ccc3c(c2)C(=O)c2ccccc2C3=O)cc1 [CBK299828],88.3
14,CC(C)CNS(=O)(=O)c1ccc(CCC(=O)O)cc1 [CBK287107],80.9
15,O=c1[nH]c2ccccc2n1CCCN1CCN(c2nccnc2Oc2ccc(F)cc2)CC1 [CBK083027T],88.2
16,Oc1ccc(-c2nccnc2NCCc2ccncc2)cc1 [CBK037302],94.3
17,CCN1CCCC1CN(Cc1ccncc1)Cc1ccoc1 (stereo not shown) [CBK283171],91
18,CN(C)CCCNC(=O)c1ccc([N+](=O)[O-])o1 [CBK262118],92.8
19,Cc1cc(F)c(S(N)(=O)=O)cc1NC(=O)c1ccc(C(F)(F)F)cc1 [CBK051448],104
20,O=c1[nH]c2ncc(-c3cccc(OC(F)(F)F)c3)nc2n1C1CCCCC1 [CBK064187],93.6

# Same assay, conditions: human, hela cells, % viability, bulk resorufin, single well
row,Compound,"viability at 28.5 h, 10 µM [%]"
1,O=C(O)C=CC(=O)Nc1ccc(SC(F)(F)C(F)(F)C(F)(F)F)cc1 [CBK296104],107
